Results as given in ChEMBL document CHEMBL5104179, “Discovery and Structural Characterization of Small Molecule Binders of the Human CTLH E3 Ligase Subunit GID4” (J Med Chem, 2022).
pIC50: −log10 of the molar value.

Experiments:
[1] = target: T1, Glucose-induced degradation protein 4 homolog (Homo sapiens) (UniProt Q8IVV7)
T1 sequence (whole entry): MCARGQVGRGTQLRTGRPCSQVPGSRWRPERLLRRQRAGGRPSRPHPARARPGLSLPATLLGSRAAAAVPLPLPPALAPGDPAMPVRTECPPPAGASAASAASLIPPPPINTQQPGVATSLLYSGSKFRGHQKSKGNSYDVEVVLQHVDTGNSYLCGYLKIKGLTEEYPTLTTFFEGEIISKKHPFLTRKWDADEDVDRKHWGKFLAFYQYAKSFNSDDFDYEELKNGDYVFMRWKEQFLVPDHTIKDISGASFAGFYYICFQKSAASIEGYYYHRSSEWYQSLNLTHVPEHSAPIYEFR
Description: Binding affinity to GID4 (124 to 289) (unknown origin) expressed in Escherichia coli BL21(DE3) assessed as change in melting temperature by differential scanning fluorimetry

[2] = target: T1, Glucose-induced degradation protein 4 homolog (Homo sapiens); conditions: HEK293, dose 50.0 µM, time 10.0 min
[3] = target: T2, Glucose-induced degradation protein 4 homolog (Homo sapiens, UniProt Q8IVV7); experiment: Inhibition of GID4 (124 to 289) (unknown origin) expressed in Escherichia coli BL21(DE3) using PGLWKS-FITC peptide by competitive-fluorescence polarization binding assay
T2 sequence (Q8IVV7 whole entry): T1 sequence (whole entry)

OCc1ccc(C2NCCc3sccc32)cc1 (configuration not stated)
ΔTm [1]: 4.4 °C

O=[N+]([O-])c1ccccc1C1NCCc2sccc21 (configuration not stated)
ΔTm [1]: 4.1 °C

C[C@H](N)c1ccc(Cl)cc1
ΔTm [1]: > 1 °C

CC(=O)c1ccc(NC2=NCC(C)S2)cc1 (configuration not stated)
ΔTm [1]: -0.1 °C

FC(F)(F)c1ccccc1C1NCCc2sccc21 (configuration not stated)
ΔTm [1]: 5.3 °C

c1cncc(C2NCCc3sccc32)c1 (configuration not stated)
ΔTm [1]: 2.5 °C

CNC(=O)[C@H](CC1CCCCC1)NC(=O)[C@@H](NC(=O)[C@H]1NC[C@@H]1c1ccccc1)c1ccsc1
ΔTm [1]: 4.5 °C

COc1ccc(C2NCCc3sccc32)cc1 (racemic)
ΔTm [1]: 4.5 °C

N#Cc1cccc(C2NCCc3sccc32)c1 (configuration not stated)
ΔTm [1]: 3.9 °C

Fc1ccc(C2NCCc3sccc32)cc1 (configuration not stated)
ΔTm [1]: 3.8 °C

Clc1ccc(C2NCCc3sccc32)cc1 (configuration not stated)
ΔTm [1]: 5.1 °C

c1ccc(C2NCCc3sccc32)cc1 (configuration not stated)
ΔTm [1]: 7.9 °C

CNC(=O)[C@H](CCc1ccccc1)NC(=O)[C@H](NC(=O)CNCc1ccc(OC)cc1OC)c1cccs1
ΔTm [1]: 16 °C
ΔTm [2]: 3.8 °C

COc1ccc(NC2=NCC(C)S2)cc1 (configuration not stated)
ΔTm [1]: 3.1 °C

COc1cccc(C2NCCc3sccc32)c1 (configuration not stated)
ΔTm [1]: 7.6 °C

Oc1cccc(C2NCCc3sccc32)c1 (configuration not stated)
ΔTm [1]: 6.1 °C

c1ccc(NC2=NCCS2)cc1
ΔTm [1]: 2.5 °C

CC1SC(Nc2ccc(F)cc2)=NC1=O (configuration not stated)
ΔTm [1]: 0.6 °C

Clc1ccccc1C1NCCc2sccc21 (configuration not stated)
ΔTm [1]: 5 °C

CC1CN=C(Nc2ccc(F)cc2F)S1 (configuration not stated)
ΔTm [1]: 0.7 °C

CC1CSC(Nc2cccc3ccccc23)=N1 (configuration not stated)
ΔTm [1]: 2.5 °C

CCOc1ccc(NC2=NCC(C)S2)cc1 (configuration not stated)
ΔTm [1]: 0.8 °C

Nc1ccc(C2NCCc3sccc32)cc1 (configuration not stated)
ΔTm [1]: 7.1 °C

CNC(=O)C1c2ccccc2CN1C(=O)[C@@H](Cc1c(C)[nH]c2ccccc12)NC(=O)CNCCOc1ccc(C)cc1 (some centres not stated)
ΔTm [1]: 0.1 °C

COc1ccc2c(c1)CCCC2c1ccccc1 (configuration not stated)
ΔTm [1]: 6.4 °C

Brc1ccc(C2NCCc3sccc32)cc1 (configuration not stated)
ΔTm [1]: 4.2 °C

FC(F)(F)c1ccc(C2NCCc3sccc32)cc1 (configuration not stated)
ΔTm [1]: 2.7 °C

O=[N+]([O-])c1cccc(C2NCCc3sccc32)c1 (configuration not stated)
ΔTm [1]: 4.9 °C

Clc1ccc(CNCc2cccnc2)cc1
ΔTm [1]: > 1 °C

COc1cccc2c1CCNC2c1ccccc1 (configuration not stated)
ΔTm [1]: 4.4 °C

CC1CN=C(Nc2ccc(F)cc2)S1 (racemic)
ΔTm [1]: 3.2 °C

CC(=O)c1cccc(NC2=NCC(C)S2)c1 (configuration not stated)
ΔTm [1]: 3.2 °C

CC1CN=C(Nc2cccc(F)c2)S1 (configuration not stated)
pIC50 [3]: 3.58

CC(=O)Oc1ccc(C2NCCc3sccc32)cc1 (configuration not stated)
ΔTm [1]: 3.3 °C

Nc1ccccc1C1NCCc2sccc21 (configuration not stated)
ΔTm [1]: 2.8 °C

NCc1ccccc1Oc1ccccc1
ΔTm [1]: > 1 °C

CC1CN=C(Nc2ccc(N(C)C)cc2)S1 (configuration not stated)
ΔTm [1]: 3.1 °C

N#Cc1ccc(C2NCCc3sccc32)cc1 (configuration not stated)
ΔTm [1]: 2 °C

O=C(O)c1ccc(-c2ccc(Cl)cc2)o1
ΔTm [1]: > 1 °C

CC1(C)CN=C(Nc2ccc(F)cc2)S1
ΔTm [1]: 1.2 °C

c1cc2c(s1)CCNC2
ΔTm [1]: 1.9 °C
